The structures appear in SMILES notation. Converted amounts (≈) assume the structure as drawn.

What all share (assay type): functional
Experiment [1] relates to Mycobacterium tuberculosis. In words: Antimycobacterial activity against STM/INH/RIF resistant Mycobacterium tuberculosis clinical isolate 9449/2007 strain assessed as bacterial growth inhibition incubated for 14 days by two-fold serial dilution method. Particulars: 9449/2007, 336 h, time 14 day.
Experiment [2] relates to Mycobacterium tuberculosis. In words: Antimycobacterial activity against STM/INH/EMB/RIF resistant Mycobacterium tuberculosis clinical isolate 234/2005 strain assessed as bacterial growth inhibition incubated for 21 days by two-fold serial dilution method. The note with it: 234/2005, 504 h, time 21 day.
Experiment [3] relates to Mycobacterium tuberculosis. In words: Antimycobacterial activity against STM/INH/EMB/RIF/OFX/CLO resistant Mycobacterium tuberculosis clinical isolate 8666/2010 strain assessed as bacterial growth inhibition incubated for 21 days by two-fold serial dilution method. The note with it: 8666/2010, 504 h, time 21 day.
The test system of experiment [4] is Mycobacterium tuberculosis. In words: Antimycobacterial activity against STM/INH/EMB/RIF/CLO-resistant Mycobacterium tuberculosis clinical isolate Praha 1 assessed as bacterial growth inhibition incubated for 14 days by two-fold serial dilution method. Particulars: Praha 1, 336 h, time 14 day.
The test system of experiment [5] is Mycobacterium tuberculosis. In words: Antimycobacterial activity against STM/INH/EMB/RIF/CLO-resistant Mycobacterium tuberculosis clinical isolate Praha 1 assessed as bacterial growth inhibition incubated for 21 days by two-fold serial dilution method. Particulars: Praha 1, 504 h, time 21 day.
Experiment [6] has as its system Mycobacterium tuberculosis. In words: Antimycobacterial activity against STM/INH/EMB/RIF/OFX/GEN/AMK-resistant Mycobacterium tuberculosis clinical isolate Praha 131 assessed as bacterial growth inhibition incubated for 14 days by two-fold serial dilution method. Particulars: Praha 131, 336 h, time 14 day.
In experiment [7] the test system is Mycobacterium tuberculosis. In words: Antimycobacterial activity against STM/INH/EMB/RIF/OFX/CLO resistant Mycobacterium tuberculosis clinical isolate 8666/2010 strain assessed as bacterial growth inhibition incubated for 14 days by two-fold serial dilution method. The note with it: 8666/2010, 336 h, time 14 day.
In experiment [8] the test system is Mycobacterium tuberculosis. In words: Antimycobacterial activity against STM/INH/EMB/RIF/OFX/CLO resistant Mycobacterium tuberculosis clinical isolate Praha 4 assessed as bacterial growth inhibition incubated for 14 days by two-fold serial dilution method. Particulars: Praha 4, 336 h, time 14 day.
The test system of experiment [9] is Mycobacterium tuberculosis. In words: Antimycobacterial activity against STM/INH/EMB/RIF/OFX resistant Mycobacterium tuberculosis clinical isolate 7357/1998 strain assessed as bacterial growth inhibition incubated for 21 days by two-fold serial dilution method. The note with it: 7357/1998, 504 h, time 21 day.
The subject of experiment [10] is Mycobacterium tuberculosis. In words: Antimycobacterial activity against STM/INH/EMB/RIF/OFX/CLO-resistant Mycobacterium tuberculosis clinical isolate Praha 4 assessed as bacterial growth inhibition incubated for 21 days by two-fold serial dilution method. The note with it: Praha 4, 504 h, time 21 day.
Experiment [11] has as its system Mycobacterium tuberculosis. In words: Antimycobacterial activity against STM/INH/RIF resistant Mycobacterium tuberculosis clinical isolate 9449/2007 strain assessed as bacterial growth inhibition incubated for 21 days by two-fold serial dilution method. The note with it: 9449/2007, 504 h, time 21 day.
For experiment [12], the system named is Mycobacterium tuberculosis. In words: Antimycobacterial activity against STM/INH/EMB/RIF/OFX resistant Mycobacterium tuberculosis clinical isolate 7357/1998 strain assessed as bacterial growth inhibition incubated for 14 days by two-fold serial dilution method. Particulars: 7357/1998, 336 h, time 14 day.
Experiment [13] relates to Mycobacterium tuberculosis. In words: Antimycobacterial activity against STM/INH/EMB/RIF resistant Mycobacterium tuberculosis clinical isolate 234/2005 assessed as bacterial growth inhibition incubated for 14 days by two-fold serial dilution method. Particulars: 234/2005, 336 h, time 14 day.
The test system of experiment [14] is Mycobacterium tuberculosis. In words: Antimycobacterial activity against TM/INH/EMB/RIF/OFX/GEN/AMK-resistant Mycobacterium tuberculosis clinical isolate Praha 131 assessed as bacterial growth inhibition incubated for 21 days by two-fold serial dilution method. Particulars: Praha 131, 504 h, time 21 day.

The term MIC denotes the lowest concentration that inhibits growth of the organism. With `CNC(C)[C@@H]1CC[C@@H](N)[C@@H](O[C@H]2[C@H](O)[C@@H](O[C@H]3OC[C@](C)(O)[C@H](NC)[C@H]3O)[C@H](N)C[C@@H]2N)O1.CN[C@@H]1[C@@H](O)[C@@H](O[C@@H]2[C@@H](O)[C@H](O[C@H]3O[C@H](C(C)N)CC[C@H]3N)[C@@H](N)C[C@H]2N)OC[C@]1(C)O.CN[C@@H]1[C@@H](O)[C@@H](O[C@@H]2[C@@H](O)[C@H](O[C@H]3O[C@H](CN)CC[C@H]3N)[C@@H](N)C[C@H]2N)OC[C@]1(C)O` (stereo partly drawn), the MIC in [1] is 1 µM; in experiment [2] it was 0.26 µM; in experiment [3], 4 µM; in [4] it was 1 µM; in experiment [5], 1 µM; in experiment [6], greater than 17 µM. In addition, the minimum inhibitory concentration (MIC) in experiment [7] turned out to be 4 µM; in experiment [8] it was 0.5 µM; in experiment [9], 1 µM; in experiment [10] it was 0.5 µM; in experiment [11], 1 µM; in experiment [12], 1 µM. Further, the results for the MIC in [13] and in [14] were 0.26 µM and greater than 17 µM, respectively.

`C/C(=N\NC(=O)c1ccncc1)C(=O)Nc1ccc(Oc2ccccc2)cc1`: the MIC in experiment [1], in [2], in experiment [3], in experiment [4], in experiment [5] and in [6] was 16 µM (≈ 5.99 µg/mL) in each case. The MIC in experiment [7], in [8], in experiment [9], in experiment [10], in experiment [11] and in experiment [12] was 16 µM (≈ 5.99 µg/mL) each time. For the same compound, the MIC in experiment [13] worked out at 8 µM (≈ 3 µg/mL); in experiment [14], 16 µM (≈ 5.99 µg/mL).

Turning to `C/C(=N\NC(=O)c1ccncc1)C(=O)Nc1ccc(S(=O)(=O)Nc2cc(C)on2)cc1`, the MIC in [1], in experiment [3], in experiment [6], in experiment [7], in experiment [11] and in experiment [14] was no less than 250 µM throughout.

Regarding `C/C(=N\NC(=O)c1ccncc1)C(=O)Nc1ccc(-c2ccccc2)cc1`, the MIC in experiment [1] turned out to be 64 µM (≈ 22.9 µg/mL); in experiment [2], 125 µM (≈ 44.8 µg/mL); in experiment [3], 64 µM (≈ 22.9 µg/mL); in [4] it was 32 µM (≈ 11.5 µg/mL); in [5], 64 µM (≈ 22.9 µg/mL); in [6], 32 µM (≈ 11.5 µg/mL). Moreover, the MIC in [7] turned out to be 64 µM (≈ 22.9 µg/mL); in experiment [8] it was 64 µM (≈ 22.9 µg/mL); in experiment [9], 125 µM (≈ 44.8 µg/mL); in experiment [10], 64 µM (≈ 22.9 µg/mL); in experiment [11] it was 64 µM (≈ 22.9 µg/mL); in experiment [12] it was 64 µM (≈ 22.9 µg/mL). For the same compound, the MIC in experiment [13] and in experiment [14] was 64 µM (≈ 22.9 µg/mL) throughout.

Regarding `C/C(=N\NC(=O)c1ccncc1)C(=O)Nc1ccc(Sc2ccc([N+](=O)[O-])cc2)cc1`, the MIC in experiment [1], in [3], in experiment [6], in experiment [7], in experiment [11] and in experiment [14] was no less than 250 µM each time.

`CC1COc2c(N3CCN(C)CC3)c(F)cc3c(=O)c(C(=O)O)cn1c23` (stereo not drawn) [OFLOXACIN]: the MIC in [1] is 2.8 µM (≈ 1.01 µg/mL); in experiment [2], 0.7 µM (≈ 0.253 µg/mL); in experiment [3], 11 µM (≈ 3.98 µg/mL); in experiment [4], 1.4 µM (≈ 0.506 µg/mL); in experiment [5] it was 1.4 µM (≈ 0.506 µg/mL); in experiment [6], 22 µM (≈ 7.95 µg/mL). Also, the minimal inhibitory concentration (MIC) was 11 µM (≈ 3.98 µg/mL) in experiment [7]; greater than 22 µM in experiment [8]; 11 µM (≈ 3.98 µg/mL) in experiment [9]; greater than 22 µM in [10]; 2.8 µM (≈ 1.01 µg/mL) in [11]; 11 µM (≈ 3.98 µg/mL) in experiment [12]. For the same compound, the MIC in experiment [13] is 0.7 µM (≈ 0.253 µg/mL); in [14], greater than 17 µM.

For the origin of these results see ChEMBL document CHEMBL6177921, “Enhancing the antimycobacterial efficacy of pyridine-4-carbohydrazide: linkage to additional antimicrobial agents via oxocarboxylic acids” (RSC Med Chem, 2025).
